Source: patent US6015925A, “Antifungal agents” (Pola Chemical Industries, Inc., priority 1998, dated 2000)
Values after ≈ are worked out from the molar mass of the structure shown.

Test system: T. mentagrophytes (TIMM1189)
Experiment: Antifungal Activity Test (Measurement of Minimum Inhibitory Concentration)
Type: cell-based
Conditions: Trichophyton mentagrophytes, 168 h, Sabouraud dextrose broth, 27° C., 1 week, visual determination, read-out: MIC (minimum concentration at which growth was completely inhibited)
Procedure: Antifungal activities of compounds according to the present invention against Trichophyton sp. were determined. Described specifically, T. mentagrophytes (TIMM1189) was cultured at 27° C. for 2 weeks on Sabouraud dextrose agar slants in advance, whereby it was allowed to form sufficient conidia. The conidia were washed in a sterilized physiological saline, which contained Tween 80 at a concentration of 0.05 wt./vol. %, by rubbing the conidia with a platinum loop, whereby the conidia were suspended. The suspension was filtered through a double-layer gauze so that only the conidia were collected in a form suspended in the physiological saline. The suspension was diluted to adjust the concentration of conidia to 1×10^5 conidia/ml, whereby a test fungus solution was obtained. Meanwhile, 4 mg of one of the test compounds were taken, to which 1 ml of dimethyl sulfoxide was added to prepare a stock. The stock was subjected to doubling dilution with ethanol to prepare diluted drug solutions. To each well of a 96-well microplate for tissue culture, 175 μl of Sabouraud dextrose broth, 5 μl of the corresponding drug solution and 20 μl of the test fungus solution were added. Subsequent to thorough mixing, the fungus strain was cultured at 27° C. for 1 week.

SMILES	MIC [µg/mL]
CN(Cc1ccc(C(C)(C)C)cc1)C(c1ccccc1)c1ccccc1 [Compound 4, 4-tert-butyl-N-diphenylmethyl-N-methylbenzylamine]	100 (≈ 291 µM)
CN(C/C=C/C#CC(C)(C)C)Cc1ccccc1-c1ccccc1 [Compound 5, trans-N-(6,6-dimethyl-2-hepten-4-yn-1-yl)-N-methyl-2-phenylbenzylamine]	12.5 (≈ 39.4 µM)
CN(C/C=C\C#CC(C)(C)C)Cc1ccccc1-c1ccccc1 [Compound 6, cis-N-(6,6-dimethyl-2-hepten-4-yn-1-yl)-N-methyl-2-phenylbenzylamine]	100 (≈ 315 µM)
CN(C/C=C/C#CC(C)(C)C)Cc1cccc(-c2ccccc2)c1 [Compound 7, trans-N-(6,6-dimethyl-2-hepten-4-yn-1-yl)-N-methyl-3-phenylbenzylamine]	12.5 (≈ 39.4 µM)
CN(C/C=C\C#CC(C)(C)C)Cc1cccc(-c2ccccc2)c1 [Compound 8, cis-N-(6,6-dimethyl-2-hepten-4-yn-1-yl)-N-methyl-3-phenylbenzylamine]	12.5 (≈ 39.4 µM)
CN(C/C=C/C#CC(C)(C)C)Cc1ccc(-c2ccccc2)cc1 [Compound 9, trans-N-(6,6-dimethyl-2-hepten-4-yn-1-yl)-N-methyl-4-phenylbenzylamine]	12.5 (≈ 39.4 µM)
CN(CC=CC#CC(C)(C)C)C(c1ccccc1)c1ccccc1 [Compound 11, N-(6,6-dimethyl-2-hepten-4-yn-1-yl)-N-methyl(diphenylmethyl)amine]	100 (≈ 315 µM)

Results, then the molecule that gave them:

MIC [µg/mL]	SMILES
12.5 (≈ 36.4 µM)	CN(Cc1ccc(C(C)(C)C)cc1)Cc1ccccc1-c1ccccc1 [Compound 1, 4-tert-butyl-N-methyl-N-(2-phenylbenzyl)benzylamine]
25 (≈ 72.8 µM)	CN(Cc1ccc(C(C)(C)C)cc1)Cc1cccc(-c2ccccc2)c1 [Compound 2, 4-tert-butyl-N-methyl-N-(3-phenylbenzyl)benzylamine]
12.5 (≈ 36.4 µM)	CN(Cc1ccc(-c2ccccc2)cc1)Cc1ccc(C(C)(C)C)cc1 [Compound 3, 4-tert-butyl-N-methyl-N-(4-phenylbenzyl)benzylamine]
